What was measured:
[1] = system: souris mâles de la lignée BALB/c; test: T-maze: acquisition and retention of a simple spatial discrimination in the mouse; type: in vivo; conditions: 10 mg/kg i.p. 30 minutes before the test; for Acquisition de la discrimination : Nombre de réponses correctes sur les 20 premiers essais de l'épreuve: day 3, 12 BALB/c mice per group; for Acquisition de la discrimination : Nombre de réponses correctes sur les 20 premiers essais de l'épreuve / Rétention de la discrimination : Essais au critère: mean ± standard error; for Rétention de la discrimination : Essais au critère: day 4 (24 h after acquisition), criterion 5/5; for Rétention : Réponses correctes sur les cinq premiers essais: placebo 3,0 ± 0,21
Description: Comparaison des effets de la tianeptine et de l'isomère (+) de celle-ci sur l'alternance spontanée, l'acquisition et la rétention d'une discrimination spatiale simple (labyrinthe en T) chez la souris.
Le principe du test s'appuie sur la tendance innée qu'ont les mammifères confrontés à un choix entre deux directions à prendre, à aller explorer le lieu qui leur est le moins familier. Un animal placé plusieurs fois successivement à l'entrée d'un labyrinthe en T se dirigera de préférence vers le bras qu'il n'a pas visité précédemment. Pour que ce comportement apparaisse, il est évidemment nécessaire que l'animal se souvienne du dernier bras visité. Ce souvenir met en jeu la mémoire dite de travail. La souris est soumise à une phase d'apprentissage (acquisition) pendant laquelle elle doit choisir plusieurs fois, de suite entre les deux bras, jusq'uà ce qu'elle ait opté cinq fois de suite pour un bras déterminé par l'expérimentateur. Pour apprécier si l'animal a bien retenu ce qu'il a appris au cours de l'épreuve d'acquisition, il est replacé 24 heures plus tard dans la même situation. Le degré de rétention sera mesuré par le nombre d'épreuves subies avant la réussite de cinq essais consécutifs.
Animaux : 36 souris mâles de la lignée BALB/c, vierges de toute expérimentation et âgées de 14 à 16 semaines, sont utilisées. Elles sont placées, 15 jours avant le début des expériences, dans des cages individuelles (animalerie climatisée (22°C) et pourvue d'un cycle artificiel lumière-obscurité de 12 heures (7h ON)).
Appareil : C'est un labyrinthe en T construit en plexiglas de couleur grise. Le couloir central et les deux bras d'arrivée mesurent 35 cm de long, 10 cm de large et 20 cm de haut. Le compartiment de départ (10 x 12 cm) est séparé du couloir central par une porte à guillotine. L'entrée de chaque bras est également pourvue d'une porte. L'appareil utilisé est semi-automatique : l'alimentation des mangeoires, l'ouverture et la fermeture des portes sont commandées par un micro-ordinateur selon le protocole pré-établi.
Protocole : Toutes les épreuves se déroulent entre 9h et 16h et durant 4 jours (de J1 à J4) sans interruption. La ration alimentaire des animaux est réduite de façon à atteindre un poids corporel de 83-84 % du poids ad libitum pour les épreuves d'habituation (J1 et J2) et de 87-88 % lors des épreuves d'alternance et de discrimination spatiale (J3 et J4).
Habituation (J1-J2) : L'expérience proprement dite est précédée de deux séances d'habituation de 10 minutes (exploration libre, une séance par jour). L'animal est simplement placé dans l'appareil toutes portes ouvertes.
Alternances spontanées et acquisition de la discrimination (J3) : Ces deux épreuves ont lieu le lendemain sans interruption. Elles sont destinées à mesurer l'alternance (6 premiers essais) et la vitesse d'acquisition de la discrimination spatiale (essais suivants). Lors des 6 premiers essais, la nourriture est disposée à l'extrémité de chacun des deux bras. Lors de chaque essai, l'animal est placé dans le compartiment de départ pendant 30 secondes (intervalle entre essais). La porte donnant accès au couloir central est ouverte et la souris peut choisir entre les deux bras où elle reste enfermée pendant 30 secondes. On constate que l'animal normal alterne ses choix successifs (65 % d'alternance environ). Apartir du 6ème essai, la nourriture n'est plus disposée que dans un seul bras, toujours le même; le bras choisi est celui qui a été le moins visité au cours des 6 premiers essais. L'épreuve se poursuit alors jusqu'à ce que l'animal atteigne un critère de 5 bonnes réponses sur 5 essais consécutifs.
Rétention de la discrimination spatiale (J4) : Elle se déroule dans les mêmes conditions que l'acquisition (même bras renforcé) et se poursuit pendant un minimum de 10 essais ou, au-delà, jusqu'à l'atteinte du critère de 5/5. Le nombre d'essais est limité à 20. […]

[2] = system: souris mâles de la lignée BALB/c; conditions: 10 mg/kg, mouse; earlier results (Jaffard et coll., Behav. Pharmacol., 1991); cited from earlier work

Row | SMILES | Acquisition de la discrimination : Nombre de réponses correctes sur les 20 premiers essais de l'épreuve [1] | Rétention de la discrimination : Essais au critère [1] | Rétention : Réponses correctes sur les cinq premiers essais ([1]; day 4) | alternance spontanée, acquisition et rétention d'une discrimination simple (labyrinthe en T) [2] | Rétention : Réponses correctes sur les dix premiers essais ([1]; day 4)
1 | CN1c2ccccc2C(NCCCCCCC(=O)O)c2ccc(Cl)cc2S1(=O)=O (racemic) [Tianeptine, tianeptine] | 12,75 ± 0,77 | 8,58 ± 0,60 essais | n'a pas d'effet | facilitait | –
2 | CN1c2ccccc2C(NCCCCCCC(=O)O)c2ccc(Cl)cc2S1(=O)=O (single isomer, unassigned; (+)) [Isomère (+), (+)7-[(3-chloro-6-méthyl-5,5-dioxo-6,11-dihydrodibenzo[c,f]-[1,2]-thiazepin-11-yl)amino]heptanoatede sodium] | 14,83 ± 0,75 | 7,83 ± 0,74 essais | 3,92 ± 0,15 | – | performances supérieures (p<0,02) à celles du groupe tianeptine
